“Also recorded” adds a separate entry of the source. Like-named read-outs stand apart in the source and are kept apart here.
Assays:
control motor neurons = assay: RBP localisation by immunofluorescence in control iPSC-derived motor neurons; format: cell-based, human; conditions: vs untreated
Protocol: (§1) Cell culture and motor neuron differentiation. IPSCs were maintained with Essential 8 Medium media (Life Technologies) on Geltrex (Life Technologies), and passaged using EDTA (Life Technologies, 0.5 mM). IPSC cultures were kept at 37° C. and 5% carbon dioxide. IPSCs underwent differentiation into spinal cord motor neurons as described in Hall et al, 2017 [12].
(§2) IPSC were plated to 100% confluency and then differentiated to the neuroepithelium in medium consisting of DMEM/F12 Glutamax, Neurobasal, L-Glutamine, N2 supplement, nonessential amino acids, B27 supplement, β-mercaptoethanol (all from Life Technologies) and insulin (Sigma). The cells underwent a sequential treatment with small molecules, with day 0-7: 1 μM Dorsomorphin (Millipore), 2 μM SB431542 (Tocris Bioscience), and 3.3 μM CHIR99021 (Miltenyi Biotec), day 7-14: 0.5 μM retinoic acid (Sigma) and 1 μM Purmorphamine (Sigma), day 14-18: 0.1 μM Purmorphamine. Following 18 days of neural conversion and patterning, neural precursors were terminally differentiated in 0.1 μM Compound E (Enzo Life Sciences).
(§3) […] neuroepithelial layer was enzymatically dissociated using dispase (GIBCO, 1 mg ml−1). The neural precursors were dissociated with Accutase (Life Technologies) for final plating onto a 96 well plate (Falcon) coated with polyethylenimine (PEI) (2.2 mg/ml in 0.1M of sodium borate (Sigma) and Geltrex. Following 6 days of terminal differentiation, cells were fixed in 4% paraformaldehyde for immunolabeling.
(§4) Inhibitor treatment. Motor neuron cultures were treated with 1 μM of ML240 (Sigma; SML1071; CAS:1346527-98-7) for 2 hours, 5 μM of DBeQ for 3 hours or 1 μM of CB-5083 for 3 hours.
(§5) Immunofluorescence staining. Cells were fixed in 4% paraformaldehyde in PBS for 15 minutes at room temperature (RT). For permeabilization and non-specific antibody blocking, 0.3% Triton-X containing 5% bovine serum albumin (BSA) (Sigma) in PBS was added for 60 minutes. Primary antibodies were made up in 5% BSA and then applied overnight at 4° C. Primary antibodies used were SMI-32 (BioLegend; 801701; mouse; 1:1000), ChAT (Millipore; AB144P; goat; 1:100), βIII-tubulin (abcam; ab41489; chicken; 1:1000), TDP-43 (ProteinTech; 12892-1-AP; rabbit; 1:400), SFPQ (abcam; ab11825; mouse; 1:400), FUS (Santa Cruz; sc-47711; mouse; 1:200), hnRNPA1 (Cell Signaling; 8443S; rabbit; 1:500), hnRNPK (Santa Cruz; sc-28380; mouse; 1:500). A species-specific Alexa Fluor-conjugated secondary antibody (Life Technologies) at 1:1000 dilution in 5% BSA was added for 90 minutes at RT in the dark. Cells were washed once in PBS containing DAPI, 4′,6-diamidino-2-phenylindole nuclear stain (1:1000) for 10 minutes.
(§6) Image acquisition and analysis. Images were acquired using the Opera Phenix High-Content Screening System (Perkin Elmer). Images were acquired with a 40× objective as confocal z-stacks with a z-step of 1 μm. Stacks were processed to obtain a maximum intensity projection. A minimum of 12 fields of view were taken for each well. To calculate the nuclear:cytoplasmic ratio of RNA-binding proteins (RBPs) in single cells, images were analysed using the Columbus Image Analysis System (Perkin Elmer). A DAPI mask defined the nucleus, and based on nuclear properties a trained machine learning feature selected neurons in an automated fashion. For each individual cell an average nuclear intensity of the RBP of interest was measured. For the cytoplasmic measurement, a 1.5 μm cytoplasmic region was defined around the nucleus within a cytoplasmic mask and an average intensity measured. […] A ratio of the nuclear:cytoplasmic average intensity measurements was calculated per cell. An average of each field was calculated and then averaged across the well.
(§7) For the nuclear:neurite ratio, we implemented a semi-automated image analysis pipeline combining Ilastik, Cellprofiler and ImageJ.

VCP mutant motor neurons = assay: RBP localisation by immunofluorescence in VCP mutant iPSC-derived motor neurons; format: cell-based, human
Protocol: as §1, §2, §3, §4, §5, §6, §7

VCP ATPase = VCP ATPase (Homo sapiens, UniProt P55072); conditions: read-out: Potency of inhibition: IC50 on ATPase in vitro; cited from earlier work
VCP ATPase, sequence (P55072 whole entry): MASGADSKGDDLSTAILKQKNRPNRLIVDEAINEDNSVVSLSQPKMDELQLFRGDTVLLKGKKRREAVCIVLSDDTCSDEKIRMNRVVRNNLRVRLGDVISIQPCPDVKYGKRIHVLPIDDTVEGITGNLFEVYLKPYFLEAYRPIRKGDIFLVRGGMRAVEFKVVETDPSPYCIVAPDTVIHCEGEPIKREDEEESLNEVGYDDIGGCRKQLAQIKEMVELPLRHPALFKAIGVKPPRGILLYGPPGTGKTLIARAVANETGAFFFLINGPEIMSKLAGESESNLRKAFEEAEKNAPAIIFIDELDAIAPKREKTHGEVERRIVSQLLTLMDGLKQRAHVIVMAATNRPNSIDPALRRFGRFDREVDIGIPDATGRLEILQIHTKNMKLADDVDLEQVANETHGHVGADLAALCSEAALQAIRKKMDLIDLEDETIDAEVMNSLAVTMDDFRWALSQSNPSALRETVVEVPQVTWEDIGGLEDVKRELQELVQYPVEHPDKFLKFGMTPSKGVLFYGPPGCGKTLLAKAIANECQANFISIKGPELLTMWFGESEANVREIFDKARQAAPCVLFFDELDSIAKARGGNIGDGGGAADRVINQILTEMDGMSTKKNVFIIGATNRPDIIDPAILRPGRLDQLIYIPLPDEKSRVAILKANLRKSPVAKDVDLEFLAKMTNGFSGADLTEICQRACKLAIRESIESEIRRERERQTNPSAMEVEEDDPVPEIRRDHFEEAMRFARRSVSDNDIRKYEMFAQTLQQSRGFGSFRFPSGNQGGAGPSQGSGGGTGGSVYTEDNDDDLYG

Ub-G76V = conditions: read-out: Potency of inhibition: EC50 on Ub-G76V in cell culture; cited from earlier work
[1] = test system: TARDBP-mutant (G298S) motor neurons; conditions: 1 μM CB-5083, 3 hours, vs untreated
Protocol: Immunofluorescence staining. Cells were fixed in 4% paraformaldehyde in PBS for 15 minutes at room temperature (RT). For permeabilization and non-specific antibody blocking, 0.3% Triton-X containing 5% bovine serum albumin (BSA) (Sigma) in PBS was added for 60 minutes. Primary antibodies were made up in 5% BSA and then applied overnight at 4° C. […]
Image acquisition and analysis. […] To calculate the nuclear:cytoplasmic ratio of RNA-binding proteins (RBPs) in single cells, images were analysed using the Columbus Image Analysis System (Perkin Elmer). […] For each individual cell an average nuclear intensity of the RBP of interest was measured. For the cytoplasmic measurement, a 1.5 μm cytoplasmic region was defined around the nucleus within a cytoplasmic mask and an average intensity measured. […] A ratio of the nuclear:cytoplasmic average intensity measurements was calculated per cell. An average of each field was calculated and then averaged across the well.

[2] = test system: control and VCP mutant motor neurons; assay: Western blot of TDP-43, FUS and SFPQ protein levels; format: cell-based, human; conditions: 1 μM ML240, 2 hours; whole cells
Protocol: Western blot analysis. Protein levels of TDP-43, FUS and SFPQ were assessed in whole cells in control and VCP mutant motor neurons. Cells were subjected to untreated conditions or treatment of 1 μM of ML240 for 2 hours prior to protein extraction. The cells were lysed and proteins were extracted with RIPA disruption. Total protein concentration was quantified using BCA protein assay (Sigma). Equal amounts of protein samples were then loaded onto a gel and separated by SDS PAGE and transferred onto a nitrocellulose membrane. Samples were then blocked with PBS, 0.1% Tween, 5% dry milk powder at RT for one hour followed by primary antibody incubation overnight at 4° C. The following antibodies were diluted in PBS 5% BSA; TDP-43 (ProteinTech; 12892-1-AP; rabbit; 1:1000), SFPQ (Abcam; 11825; mouse; 1:250), FUS (Santa Cruz; sc-47711; mouse; 1:500), GAPDH (GeneTex; GT239; mouse; 1:10000). For detection, membranes were incubated with species-specific near infra-red fluorescent antibodies (IRDye, Licor) at RT for one hour and imaged using an Odyssey Fc Imaging System (Licor).

[3] = 1 μM ML240, 2 hours, normalised to control untreated

## c1ccc(CNc2nc(NCc3ccccc3)c3ccccc3n2)cc1 [DBeQ, N2,N4-dibenzylquinazo-line-2,4-diamine]
Control motor neurons; 5 μM DBeQ, 3 hours
  TDP-43 nuclear:cytoplasmic ratio (N/C): increased
Control motor neurons; 5 μM DBeQ, 3 hours, listed as DBEQ
  TDP-43 nuclear:cytoplasmic ratio (N/C): increase
VCP mutant motor neurons; 5 μM DBeQ, 3 hours, vs untreated
  TDP-43 nuclear:cytoplasmic ratio (N/C): able to reverse
VCP mutant motor neurons; 5 μM DBeQ, 3 hours, vs untreated, listed as DBEQ
  TDP-43 nuclear:cytoplasmic ratio (N/C): increase
VCP ATPase
  IC50: 1500 nM
Ub-G76V
  EC50: 2600 nM

## 3,4-methylenedioxy-6-nitrostyrene [Syk inhibitor III]
VCP ATPase
  IC50: 1700 nM
Ub-G76V
  EC50: 1600 nM

## Cc1cc2c(C(N)=O)cccc2n1-c1nc2c(c(NCc3ccccc3)n1)COCC2 [CB-5083, 1-[7,8-dihydro-4-[(phenylmethyl)amino]-5H-pyrano[4,3-d]pyrimidin-2-yl]-2-methyl-1H-indole-4-carboxamide]
Control motor neurons; 1 μM CB-5083, 3 hours
  TDP-43 nuclear:cytoplasmic ratio (N/C): increase
VCP mutant motor neurons; 1 μM CB-5083, 3 hours, vs untreated
  TDP-43 nuclear:cytoplasmic ratio (N/C): able to reverse
VCP mutant motor neurons; 1 μM CB-5083, 3 hours, vs untreated, listed as CB5083
  TDP-43 nuclear:cytoplasmic ratio (N/C): increase
[1]
  TDP-43 nuclear:cytoplasmic ratio (N/C): increased
[1]; listed as CB5083
  TDP-43 nuclear:cytoplasmic ratio (N/C): increase

## Cc1cc(OCc2nnc(SC3CCCC3)n2-c2cccnc2)ccc1-c1ccc(S(C)(=O)=O)cc1 [NMS-873]
Ub-G76V
  EC50: 400 to 700 nM

## COc1cccc2c(NCc3ccccc3)nc(-n3c(N)nc4ccccc43)nc12 [ML240, 2-(2-Amino-1H-benzimidazole-1-yl)-8-methoxy-N-(phenylmethyl)-4-quinazolinamine]
Control motor neurons; 1 μM ML240, 2 hours
  FUS nuclear:cytoplasmic ratio: no difference
  FUS nuclear:neurite ratio: small increase
  SFPQ nuclear:cytoplasmic ratio: no difference
  SFPQ nuclear:neurite ratio: no difference
  TDP-43 nuclear:cytoplasmic ratio (N/C): increase
  TDP-43 nuclear:neurite ratio (Nu/Ne): no such increase was observed; also recorded: no difference
  hnRNPA1 nuclear:cytoplasmic ratio: no difference
  hnRNPK nuclear:cytoplasmic ratio: no difference
VCP mutant motor neurons; 1 μM ML240, 2 hours
  hnRNPA1 nuclear:cytoplasmic ratio: no change
  hnRNPK nuclear:cytoplasmic ratio: no change
VCP mutant motor neurons; [3]
  FUS nuclear:cytoplasmic ratio: robustly reversed the mislocalization; also recorded: increase
  FUS nuclear:neurite ratio: robustly reversed the mislocalization; also recorded: increase of the nuclear:neurite ratio to control values
  SFPQ nuclear:neurite ratio: significantly reversed; also recorded: increase
  TDP-43 nuclear:cytoplasmic ratio (N/C): robustly reversed the mislocalization; also recorded: increased above control values
  TDP-43 nuclear:neurite ratio (Nu/Ne): robustly reversed the mislocalization; also recorded: increased
[2]
  FUS overall protein level (Western blot, normalised to GAPDH): did not change; also recorded: does not change
  SFPQ overall protein level (Western blot, normalised to GAPDH): did not change; also recorded: does not change
  TDP-43 overall protein level (Western blot, normalised to GAPDH): did not change; also recorded: does not change
